Earlier results on 1 molecule are cited in patent US8263645B2, “Disodium cromoglycate compositions and methods for administering same” (PARI Pharma GmbH, priority 2006, dated 2012).

For data set [1] the following is noted: timed urine collections.
Data set [2] concerns intermediate conductance chloride channels. The conditions noted are these: channels activated following immunological stimulation.
The subject of data set [3] is rat mast cells.

Read-outs that look alike come from different tables or passages of the source.

With `O=C([O-])c1cc(=O)c2c(OCC(O)COc3cccc4oc(C(=O)[O-])cc(=O)c34)cccc2o1.[Na+].[Na+]` [DSCG, disodium cromoglycate], the lung deposition in data set [1] (20 mg DSCG via Acron nebulizer (MMD=4.5 μm)) is on record as 1.5%; in data set [1] (20 mg DSCG via pMDI), 0.3%. In data set [2], the chloride channel block result is on record as “block intermediate conductance chloride channels”. Moreover, the histamine release result in data set [3] (following antigen challenge) was “inhibition of histamine release”. Further, the “influx of calcium ions” value in data set [3] (rat mast cells) was “inhibited the influx of calcium ions”.
